ChEMBL document CHEMBL5725973, “Pyrrolidine orexin receptor antagonists” (2018)

Columns and labels:
[1] = target: T1, Orexin/Hypocretin receptor type 1 (Homo sapiens, UniProt O43613); test: (§1) FLIPR Ca2+ Flux Assay: All reagents were from GIBCO-Invitrogen Corp. The seeded plates are incubated overnight at 37° C. and 5% CO2. Ala-6,12 human orexin-A as the agonist is prepared as a 1 mM stock solution in 1% bovine serum albumin (BSA) and diluted in assay buffer (HBSS containing 20 mM HEPES, 0.1% BSA and 2.5 mM probenecid, pH7.4) for use in the assay at a final concentration of 70pM. Test compounds are prepared as 10 mM stock solution in DMSO, then diluted in 384-well plates, first in DMSO, then assay buffer. On the day of the assay, cells are washed 3 times with 100 μl assay buffer and then incubated for 60 min (37° C., 5% CO2) in 60 μl assay buffer containing 1 μM Fluo-4AM ester, 0.02% pluronic acid, and 1% BSA. The dye loading solution is then aspirated and cells are washed 3 times with 100 μl assay buffer. 30 μl of that same buffer is left in each well. Within the Fluorescent Imaging Plate Reader (FLIPR, Molecular Devices), test compounds are added to the plate in a volume of 25 μl, incubated for 5 min and finally 25 μl of agonist is added. Fluorescence is measured for each well at 1 second intervals for 5 minutes and the height of each fluorescence peak is compared to the height of the fluorescence peak induced by 70 pM Ala-6,12 orexin-A with buffer in place of antagonist. For each antagonist, IC50 value (the concentration of compound needed to inhibit 50% of the agonist response) is determined. Alternatively, compound potency can be assessed by a radioligand binding assay (described in Bergman et. al. Bioorg. Med. Chem. Lett. 2008, 18, 1425-1430) in which the inhibition constant (Ki) is determined in membranes prepared from CHO cells expressing either the OX1 or OX2 receptor. The intrinsic orexin receptor antagonist activity of a compound which may be used in the present invention may be determined by these assays.
T1 sequence (O43613 whole entry): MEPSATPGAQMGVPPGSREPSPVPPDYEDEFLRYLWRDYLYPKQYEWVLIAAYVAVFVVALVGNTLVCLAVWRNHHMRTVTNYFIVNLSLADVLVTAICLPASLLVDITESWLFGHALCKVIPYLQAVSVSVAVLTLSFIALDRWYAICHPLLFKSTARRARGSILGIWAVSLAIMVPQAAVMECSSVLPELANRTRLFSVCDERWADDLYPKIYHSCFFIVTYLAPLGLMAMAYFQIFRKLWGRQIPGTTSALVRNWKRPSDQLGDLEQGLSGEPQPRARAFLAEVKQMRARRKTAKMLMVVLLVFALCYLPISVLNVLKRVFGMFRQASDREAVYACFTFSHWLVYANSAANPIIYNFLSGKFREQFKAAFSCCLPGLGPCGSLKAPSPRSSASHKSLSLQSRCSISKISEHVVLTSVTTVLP

[2] = target: T2, Orexin receptor type 2 (Homo sapiens, UniProt O43614); test: as §1
T2 sequence (O43614 whole entry): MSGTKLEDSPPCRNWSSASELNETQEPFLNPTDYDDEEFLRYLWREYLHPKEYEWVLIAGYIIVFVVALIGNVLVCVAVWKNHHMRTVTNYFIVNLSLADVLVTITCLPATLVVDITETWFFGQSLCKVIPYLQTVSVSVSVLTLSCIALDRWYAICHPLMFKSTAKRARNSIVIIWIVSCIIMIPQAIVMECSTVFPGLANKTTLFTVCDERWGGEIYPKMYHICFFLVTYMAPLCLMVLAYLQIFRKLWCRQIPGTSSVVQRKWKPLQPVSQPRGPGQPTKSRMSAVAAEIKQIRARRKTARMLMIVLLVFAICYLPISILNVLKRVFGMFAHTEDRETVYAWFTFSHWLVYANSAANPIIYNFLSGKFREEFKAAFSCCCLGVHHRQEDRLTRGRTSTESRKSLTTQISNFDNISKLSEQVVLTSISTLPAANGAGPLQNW

`C[C@@H]1C[C@@H](Nc2cc(OCC(F)F)ccn2)CN1C(=O)c1ccccc1C1(C#N)CCC1` gave an IC50 [1] of 4040 nM and an IC50 [2] of 58.3 nM.
`C[C@@H]1C[C@@H](Nc2cc(Br)ccn2)CN1C(=O)c1ccccc1-n1nccn1` was tested, and the IC50 [1] was 1150 nM and the IC50 [2] was 11.2 nM.
